These results are taken from patent publication US4443436A, “C-20-Modified macrolide derivatives of the macrolide antibiotics tylosin, desmycosin, macrocin, and lactenocin” (Eli Lilly and Company, priority 1982, dated 1984).

For assay [1], the system named is Staphylococcus aureus X1.1. Nature of the assay: MIC, standard agar-dilution assay, Staphylococcus aureus X1.1. In kind it is cell-based.
Assay [2] relates to Staphylococcus aureus V41. Nature of the assay: MIC, standard agar-dilution assay, Staphylococcus aureus V41. In kind it is cell-based.
The subject of assay [3] is Staphylococcus aureus X400. In words: MIC, standard agar-dilution assay, Staphylococcus aureus X400. Format: cell-based.
The test system of assay [4] is Staphylococcus aureus S13E. In words: MIC, standard agar-dilution assay, Staphylococcus aureus S13E. In kind it is cell-based.
For assay [5], the system named is Staphylococcus epidermidis EPI1. Nature of the assay: MIC, standard agar-dilution assay, Staphylococcus epidermidis EPI1. In kind it is cell-based.
In assay [6] the test system is Streptococcus pyogenes C203. In words: MIC, standard agar-dilution assay, Streptococcus pyogenes C203. Format: cell-based.
Assay [7] deals with Streptococcus pneumoniae Park I. In words: microbe, parasite or virus in culture. In kind it is cell-based.
The subject of assay [8] is Streptococcus Group D X66. Nature of the assay: MIC, standard agar-dilution assay, Streptococcus Group D X66. Format: cell-based.
Assay [9] relates to Streptococcus Group 9960. Nature of the assay: MIC, standard agar-dilution assay, Streptococcus Group 9960. In kind it is cell-based.
The subject of assay [10] is Haemophilus influenzae Holt. Nature of the assay: MIC, standard agar-dilution assay, Haemophilus influenzae Holt. In kind it is cell-based.
The subject of assay [11] is Haemophilus influenzae R252. Nature of the assay: MIC, standard agar-dilution assay, Haemophilus influenzae R252. Format: cell-based.
In assay [12] the test system is Staphylococcus aureus. In words: MIC, broth-dilution microtiter test, Staphylococcus aureus. The settings on record: broth-dilution microtiter. Format: cell-based. From the text: (§1) The MIC's in Table X were obtained using conventional broth-dilution microtiter tests.
Assay [13] has as its system Streptococcus bovis 80. In words: MIC, broth-dilution microtiter test, Streptococcus bovis 80. In kind it is cell-based.
Excerpt: as §1

For assay [14], the system named is Pasteurella hemolytica 22C. Nature of the assay: MIC, broth-dilution microtiter test, Pasteurella hemolytica 22C. In kind it is cell-based.
Excerpt: as §1

Assay [15] concerns Mycoplasma gallisepticum. In words: MIC, broth-dilution microtiter test, Mycoplasma gallisepticum. In kind it is cell-based. The settings on record: Mycoplasma gallisepticum, broth-dilution microtiter.
Excerpt: as §1

The test system of assay [16] is Mycoplasma hyorhinis. In words: MIC, broth-dilution microtiter test, Mycoplasma hyorhinis. Format: cell-based.
Excerpt: as §1

The subject of assay [17] is Streptococcus pyogenes C203. In words: In vivo protection of mice experimentally infected with S. pyogenes C203. The settings on record: mice, doses given 1 and 4 hours post-infection; for ED50: Streptococcus pyogenes. The method, then:
The C-20 modified derivatives of this invention have shown in vivo antimicrobial activity against experimentally-induced infections in laboratory animals. When two doses of test compound were administered to mice experimentally infected with S. pyogenes C203, the activity observed was measured as an ED50 value [effective dose in mg/kg to protect 50% of the test animals: see Warren Wick, et al., J. Bacteriol. 81, 233-235 (1961)].

Assay [18] deals with Pasteurella multocida. Nature of the assay: Subcutaneous treatment of Pasteurella multocida-infected chicks. In kind it is in vivo, one-day-old chicks. As for the experimental part:
Many of the C-20 modified derivatives of this invention have also shown in vivo antibacterial activity against infections induced by gram-negative bacteria. Tables XII and XIII summarize the results of tests in which illustrative compounds were evaluated against Pasteurella infection in one-day-old chicks. The compounds were administered parenterally or orally after challenge of the chicks with Pasteurella multocida (0.1 ml of a 10^-4 dilution of a twenty-hour tryptose broth culture of an avian P. multocida given subcutaneously). In these tests, unless indicated otherwise, all non-medicated infected chicks died within 24 hours of Pasteurella challenge. In the tests summarized in Table XII the compounds were administered by subcutaneous injection at a dosage of 30 mg/kg, 1 and 4 hours post-challenge of the chicks with P. multocida. In the test summarized in Table XIII the compounds were administered by gavage at 1 and 5 hours post-challenge of the chicks with P. multocida.

The test system of assay [19] is Mycoplasma gallisepticum. In words: Antimycoplasmal activity in chicks infected with Mycoplasma gallisepticum. Format: in vivo, two- to three-day-old chicks. The settings on record: gavage five times, equivalent to 0.5 g/gal. As for the experimental part:
In these tests infections were induced in chicks by injecting 0.2 ml of a broth culture of M. gallisepticum into the abdominal air sac of two- to three-day-old chicks. The compounds were administered by gavage five times at a dose equivalent to 0.5 g/gal (on the day of challenge once prior to and once following the challenge, two times on the next day and once on the third day). Twenty-one days post-infection, the chicks were weighed, a blood sample was taken, and the chicks were sacrificed. The presence or absence of air-sac lesions was recorded.

Assay [20] concerns Staphylococcus epidermidis EPI2. In words: MIC, standard agar-dilution assay, Staphylococcus epidermidis EPI2. In kind it is cell-based. To be noted: Staphylococcus epidermidis EPI2; agar dilution; read-out: MIC. In general terms: Agar dilution tests growth on a series of plates holding different concentrations.
The subject of assay [21] is Pasteurella multocida 17E. Nature of the assay: MIC, broth-dilution microtiter test, Pasteurella multocida 17E. In kind it is cell-based. The settings on record: Pasteurella multocida, 17E.
Excerpt: as §1

Assay [22] has as its system Pasteurella multocida 60A. In words: MIC, broth-dilution microtiter test, Pasteurella multocida 60A. In kind it is cell-based. To be noted: Pasteurella multocida, 60A.
Excerpt: as §1

For assay [23], the system named is Mycoplasma synoviae. Nature of the assay: MIC, broth-dilution microtiter test, Mycoplasma synoviae. To be noted: Mycoplasmopsis synoviae; Mycoplasma synoviae; broth-dilution microtiter; read-out: MIC. In kind it is cell-based.
Excerpt: as §1

Assay [24] relates to Mycoplasma hyopneumoniae. In words: MIC, broth-dilution microtiter test, Mycoplasma hyopneumoniae. Format: cell-based. The settings on record: Mesomycoplasma hyopneumoniae; Mycoplasma hyopneumoniae; broth-dilution microtiter; read-out: MIC.
Excerpt: as §1

Assay [25] relates to Pasteurella multocida. Nature of the assay: Oral (gavage) treatment of Pasteurella multocida-infected chicks. Format: in vivo, one-day-old chicks. The settings on record: 2.0 g/gal equivalent, 11/20 infected nonmedicated chicks died in this test. An outline of the steps:
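One-day-old chicks challenged subcutaneously with 0.1 ml of a 10^-4 dilution of a 20-hour tryptose broth culture of avian P. multocida. Compounds given by subcutaneous injection at 30 mg/kg 1 and 4 hours post-challenge, or by oral gavage 1 and 5 hours post-challenge.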

Values after ≈ are worked out from the molar mass of the structure shown. Like-named read-outs stand apart in the source and are kept apart here. A value given as a limit tells only on which side of the number the result lay.

In the case of `CCC1OC(=O)CC(O)C(C)C(OC2OC(C)C(O)C(N(C)C)C2O)C(CCN=[N+]=[N-])CC(C)C(=O)C=CC(C)=CC1COC1OC(C)C(O)C(OC)C1OC` (centres unmarked) [Compound 44, 20-DH-DO-20-Azidodesmycosin], the MIC in assay [1] (Staphylococcus aureus X1.1, agar dilution) was 0.12 µg/mL (≈ 0.15 µM); in assay [2] (Staphylococcus aureus V41, penicillin-resistant strain, agar dilution) it was 0.12 µg/mL (≈ 0.15 µM); in [3] (Staphylococcus aureus X400, methicillin-resistant strain, agar dilution) it was 0.25 µg/mL (≈ 0.313 µM); in assay [4] (Staphylococcus aureus S13E, agar dilution) it was 0.12 µg/mL (≈ 0.15 µM); in assay [5] (Staphylococcus epidermidis EPI1, agar dilution) it was 0.12 µg/mL (≈ 0.15 µM); in assay [6] (Streptococcus pyogenes C203, agar dilution), 0.25 µg/mL (≈ 0.313 µM). The MIC in assay [7] (Streptococcus pneumoniae Park I, agar dilution) amounted to 2 µg/mL (≈ 2.5 µM); in assay [8] (Streptococcus Group D X66, agar dilution), 4 µg/mL (≈ 5.01 µM); in assay [9] (Streptococcus Group 9960, agar dilution) it was 8 µg/mL (≈ 10 µM); in [10] (Haemophilus influenzae Holt, ampicillin-sensitive strain, agar dilution) it was 16 µg/mL (≈ 20 µM); in [11] (Haemophilus influenzae R252, ampicillin-resistant strain, agar dilution), 4 µg/mL (≈ 5.01 µM); in assay [12], 0.39 µg/mL (≈ 0.488 µM). Also, the MIC in assay [13] (Streptococcus bovis 80, broth-dilution microtiter) amounted to 6.25 µg/mL (≈ 7.82 µM); in [14] (Pasteurella hemolytica 22C, broth-dilution microtiter), 12.5 µg/mL (≈ 15.6 µM); in assay [15], 0.39 µg/mL (≈ 0.488 µM); in [16] (Mycoplasma hyorhinis, broth-dilution microtiter), 50 µg/mL (≈ 62.6 µM). The “ED50, Oral” value in assay [17] (oral) is recorded as 13 mg/kg × 2. Besides, the “ED50, Subcutaneous” value in [17] (subcutaneous) is on record as 3.8 mg/kg × 2. Also, the “Number of Deaths/Number Treated” value in [18] (30 mg/kg × 2, 1 and 4 hours post-challenge) is recorded as 9/10. In assay [19] (antibodies to M. gallisepticum, 21 days post-infection), the “Number with Antibodies/Number Tested” value is 9/10. Also, the Mortality in assay [19] is on record as 0/10. Further, the “Number with Air-Sac Lesions/Number Treated” value in assay [19] (21 days post-infection) is given as 7/10.
The ED50 is the dose at which the effect has come halfway, by size or by number of responders. Turning to `CCC1OC(=O)CC(O)C(C)C(OC2OC(C)C(O)C(N(C)C)C2O)C(CC2SCCN2Cc2ccccc2)CC(C)C(=O)C=CC(C)=CC1COC1OC(C)C(O)C(OC)C1OC` (centres unmarked) [Compound 77], the MIC was 0.25 µg/mL (≈ 0.271 µM) in [1] (Staphylococcus aureus, X1.1); 0.25 µg/mL (≈ 0.271 µM) in assay [2] (Staphylococcus aureus, V41); 0.25 µg/mL (≈ 0.271 µM) in assay [3] (Staphylococcus aureus, X400); 0.25 µg/mL (≈ 0.271 µM) in assay [4] (Staphylococcus aureus, S13E); 0.25 µg/mL (≈ 0.271 µM) in [5] (Staphylococcus epidermidis, EPI1); 0.12 µg/mL (≈ 0.13 µM) in assay [20]. Further, the MIC was 0.25 µg/mL (≈ 0.271 µM) in assay [6] (Streptococcus pyogenes, C203); 1 µg/mL (≈ 1.09 µM) in assay [7] (Streptococcus pneumoniae); 4 µg/mL (≈ 4.34 µM) in assay [8]; 4 µg/mL (≈ 4.34 µM) in [9] (GROUP9960); 16 µg/mL (≈ 17.4 µM) in assay [10] (Haemophilus influenzae); 16 µg/mL (≈ 17.4 µM) in [11] (Haemophilus influenzae, R252). Besides, the MIC amounted to 0.39 µg/mL (≈ 0.423 µM) in assay [12] (read-out: MIC); 3.12 µg/mL (≈ 3.39 µM) in [13] (Streptococcus equinus, 80); 12.5 µg/mL (≈ 13.6 µM) in assay [21]; 12.5 µg/mL (≈ 13.6 µM) in assay [22]; 12.5 µg/mL (≈ 13.6 µM) in assay [14] (Pasteurella, 22C); 0.09 µg/mL (≈ 0.0977 µM) in assay [15] (Mycoplasmoides gallisepticum, read-out: MIC). The values for the MIC in [23], in assay [16] (Mycoplasma) and in [24] were 0.19 µg/mL (≈ 0.206 µM), 6.25 µg/mL (≈ 6.78 µM) and 0.19 µg/mL (≈ 0.206 µM), respectively. In addition, the ED50 in assay [17] (C203, sc, subcutaneous, read-out: ED50, Subcutaneous) was over 10 mg/kg; in assay [17] (C203, oral, read-out: ED50, Oral) it was 19 mg/kg. For the same compound, the “Number of Deaths/Number Treated” value in assay [18] (30 mg/kg × 2, 8/10 and 9/10 of two groups of infected nonmedicated chicks died) is reported as 8/10. Further, the “Number of Deaths/Number tested” value in [25] is recorded as 4/10.
